This note sets out measurements from paper doi:10.1101/324947v3 (biorxiv, 2020).

For assay [1], the target named is T1, recombinant IDO1 (holo-IDO1; apo-IDO1) (Homo sapiens, UniProt P14902). Briefly: NFK formation from D-TRP, Morrison tight binding fit. The class given is biochemical.
Assay [2] deals with T1, recombinant IDO1 (holo-IDO1; apo-IDO1). Briefly: intrinsic TRP fluorescence quenching, equilibrium titration. The class given is binding.
Assay [3] shares this target. As to the kind of experiment: fluorescence polarization competition against GSK1051. The class given is binding.

T1 sequence (P14902 whole entry): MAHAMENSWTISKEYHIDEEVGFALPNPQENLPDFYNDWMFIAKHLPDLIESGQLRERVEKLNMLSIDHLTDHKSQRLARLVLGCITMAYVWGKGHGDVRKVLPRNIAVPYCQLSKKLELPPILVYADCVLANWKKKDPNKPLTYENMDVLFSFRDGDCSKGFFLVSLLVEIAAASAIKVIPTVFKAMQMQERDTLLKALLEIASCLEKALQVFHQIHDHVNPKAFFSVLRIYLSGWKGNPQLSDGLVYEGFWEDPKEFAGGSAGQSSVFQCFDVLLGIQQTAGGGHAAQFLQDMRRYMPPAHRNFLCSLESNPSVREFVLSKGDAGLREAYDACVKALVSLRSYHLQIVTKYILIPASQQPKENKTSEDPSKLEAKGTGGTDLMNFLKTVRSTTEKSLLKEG

Regarding `CC(C)CN(CC(C)C)c1ccc([C@H](C)CC(=O)O)cc1Nc1nc(C(F)(F)F)ns1` [GSK5628], the Ki in assay [1] is 10 nM. Besides, the Kd in assay [2] turned out to be 2.1 nM.

For the molecule `C=CC1=C(C)C2=Cc3c(C=C)c(C)c4[n]3[Fe+][n]3c(c(C)c(CCC(=O)O)c3=CC3=NC(=C4)C(C)=C3CCC(=O)O)=CC1=N2` [heme], the IC50 in assay [3] amounted to 4.4 nM.
